“Also recorded” adds a separate entry of the source.
How the values were obtained:
[1] = tested on: anaesthetized, mechanically ventilated pigs in normoxia; assay: Response to ADP infusion during normoxia: haemodynamic measurements in pigs (Protocol 3); assay type: in vivo
Experimental: (§1) Haemodynamic measurements were performed in six anaesthetized, mechanically ventilated pigs (30.2±0.7 kg) in normoxia (FiO2˜0.21) and hypoxia (FiO2˜0.10) prior to and during right atrial cangrelor infusion at a loading dose of 30 μg/kg/min for 10 min, and then a continuous infusion at 4 μg/kg/min for 80 min. Another six pigs (29.3±0.5 kg) were investigated in normoxia before and during right atrial infusion of ADP at 70 μg/kg/min for ˜7 min; as well as before and during simultaneous ADP and cangrelor infusion for ˜7 min at doses of 70 μg/kg/min and 4 μg/kg/min, respectively, after a cangrelor loading dose of 30 μg/kg/min for 10 min. All data are mean±SEM.
Protocol 3—Response to ADP During Normoxia.
ADP infusion during normoxia increased MPAP, temporarily to peak at 35.2±1.9 mmHg, 19.3±1.6 mmHg higher (p<0.001) than baseline, to then stabilize at a level 10.4±1.6 mmHg higher (p<0.001) than baseline, and 8.9±1.4 mmHg lower (p<0.001) than the peak, after ˜4-7 min. Also, after ˜4-7 min from initiation of ADP infusion, PVR had increased (p<0.002) by 2.8±0.4 WU and PCWP by 2.5±0.7 mmHg (p<0.019), compared to baseline. ADP infusion during normoxia decreased MAP, first to reach a nadir at 39.8±6.1 mmHg, 48.5±6.0 mmHg lower (p<0.001) than baseline, however, then stabilizing, after ˜4-7 min, at a level not different (p=ns) from, although slightly lower than, baseline, and 41.7±8.9 mmHg higher (p<0.001) than the nadir. MRAP, SVR, CO, HR, SV and blood-O2-consumption were unchanged (p=ns) by ADP infusion during normoxia.

[2] = tested on: anaesthetized, mechanically ventilated pigs in normoxia (ADP-induced pulmonary vasoconstriction); assay: Response to simultaneous ADP and cangrelor infusion during normoxia: haemodynamic measurements in pigs (Protocol 4); assay type: in vivo
Experimental: as §1
Protocol 4—Response to Simultaneous ADP and Cangrelor Infusion.
(§2) The ˜4-7 min MAP measurement after simultaneous ADP and cangrelor infusion was, however, not different (p=ns) from the measurement with ADP infusion alone. Also, SVR decreased (p<0.024) by 3.2±1.2 WU, as compared to baseline, in response to simultaneous ADP and cangrelor infusion. […] Furthermore, the ˜4-7 min PVR and PCWP measurements after simultaneous ADP and cangrelor infusion were lower (p<0.005 and p<0.022, respectively) than the measurements with ADP infusion alone. Also, the ˜4-7 min SV measurement after simultaneous ADP and cangrelor infusion was higher (p<0.02) than the measurement with ADP infusion alone.

dog thrombosis model = conditions: compared with placebo; animals receiving tissue-type plasminogen activator and heparin after thrombus formation; cited from earlier work
[3] = tested on: anaesthetized, mechanically ventilated pigs in normoxia; assay: Cangrelor infusion alone during normoxia: haemodynamic measurements in pigs; assay type: in vivo; conditions: p=ns
Experimental: as §1, §2

[4] = cited from earlier work
[5] = tested on: anaesthetized, mechanically ventilated pigs in hypoxia (hypoxic pulmonary vasoconstriction); assay: Response to cangrelor during hypoxia: haemodynamic measurements in pigs (Protocol 2); assay type: in vivo; conditions: for MPAP decrease compared to hypoxia baseline: hypoxia (FiO2˜0.10), mean±SEM
Experimental: as §1
Protocol 2—Response to Cangrelor During Hypoxia.
Compared to hypoxia baseline, MPAP decreased transiently by 3.3±0.4 (p<0.036) and 3.6±0.6 mmHg (p<0.018), respectively, 10 and 30 min after initiation of cangrelor infusion; but returned to levels not different (p=ns) from baseline 60 and 90 min after initiation of cangrelor infusion. PVR, MRAP, PCWP, MAP, SVR, CO, HR, SV and blood-O2-consumption were unaltered by cangrelor infusion during hypoxia (p=ns).

[6] = ˜4-7 min from initiation of ADP infusion
[7] = simultaneous ADP and cangrelor infusion, normoxia
[8] = simultaneous ADP and cangrelor infusion, after ˜4-7 min
[9] = simultaneous ADP and cangrelor infusion, p=ns
[10] = during hypoxia, p=ns, listed as Cangrelor

Nc1ncnc2c1ncn2[C@@H]1O[C@H](COP(=O)(O)OP(=O)(O)O)[C@@H](O)[C@H]1O [ADP, adenosine diphosphate]
MAP nadir ([1]; ADP infusion): 39.8±6.1 mmHg | MAP nadir, lower than baseline ([1]; ADP infusion): 48.5±6.0 mmHg | MPAP peak, higher than baseline ([1]; ADP infusion 70 μg/kg/min): 19.3±1.6 mmHg | MPAP peak ([1]; ADP infusion 70 μg/kg/min, mean±SEM): 35.2±1.9 mmHg | MAP stabilized level, higher than the nadir ([1]; ADP infusion, after ˜4-7 min): 41.7±8.9 mmHg | MPAP stabilized level, higher than baseline ([1]; ADP infusion, after ˜4-7 min): 10.4±1.6 mmHg | MPAP stabilized level, lower than the peak ([1]; ADP infusion, after ˜4-7 min): 8.9±1.4 mmHg | MAP stabilized level compared to baseline ([1]; ADP infusion, after ˜4-7 min, p=ns): not different | CO change by ADP infusion ([1]; p=ns): unchanged; also recorded: tended to decrease | HR change by ADP infusion ([1]; p=ns): unchanged | MRAP change by ADP infusion ([1]; p=ns): unchanged; also recorded: tended to increase | SV change by ADP infusion ([1]; p=ns): unchanged; also recorded: tended to decrease | SVR change by ADP infusion ([1]; p=ns): unchanged | blood-O2-consumption change by ADP infusion ([1]; p=ns): unchanged; also recorded: tended to decrease | PCWP increase compared to baseline [1, 6]: 2.5±0.7 mmHg | PVR increase compared to baseline [1, 6]: 2.8±0.4 WU

CSCCNc1nc(SCCC(F)(F)F)nc2c1ncn2[C@@H]1O[C@H](COP(=O)(O)OP(=O)(O)C(Cl)(Cl)P(=O)(O)O)[C@@H](O)[C@H]1O [cangrelor]
attenuation of the MPAP peak induced by ADP infusion ([2]; normoxia): 34% | sustained MPAP increase induced by ADP infusion ([2]; normoxia): totally prevented | sustained PVR increase induced by ADP infusion ([2]; normoxia): totally prevented | MPAP transient increase compared to baseline (peak) ([2]; normoxia, simultaneous ADP 70 μg/kg/min and cangrelor 4 μg/kg/min after cangrelor loading dose 30 μg/kg/min for 10 min): 7.3±1.8 mmHg | MPAP peak as share of the peak ADP response without cangrelor ([2]; normoxia, simultaneous ADP and cangrelor infusion): ~66% | SVR decrease compared to baseline ([2]; simultaneous ADP and cangrelor infusion): 3.2±1.2 WU | MAP nadir [2, 7]: 64.9±3.4 mmHg | MAP transient decrease compared to baseline [2, 7]: 19.4±3.1 mmHg | MAP stabilized level, higher than the nadir [2, 8]: 12.9±2.2 mmHg | MAP stabilized level, lower than baseline [2, 8]: 6.5±1.2 mmHg | MPAP level, lower than the peak [2, 8]: 7.4±1.5 mmHg | MPAP compared to baseline ([2]; simultaneous ADP and cangrelor infusion, after ˜4-7 min, p=ns): not different | ˜4-7 min MPAP measurement compared to ADP infusion alone ([2]; simultaneous ADP and cangrelor infusion, p<0.002): significantly lower | ˜4-7 min PVR measurement compared to ADP infusion alone ([2]; simultaneous ADP and cangrelor infusion, p<0.005): lower | ˜4-7 min SV measurement compared to ADP infusion alone ([2]; simultaneous ADP and cangrelor infusion, p<0.02): higher | ˜4-7 min PCWP measurement compared to ADP infusion alone ([2]; simultaneous ADP and cangrelor infusion, p<0.022): lower | MAP nadir compared to the nadir response to ADP alone ([2]; simultaneous ADP and cangrelor infusion, p<0.027): significantly higher | CO change compared to baseline [2, 9]: unchanged | HR change compared to baseline [2, 9]: unchanged | MRAP change compared to baseline [2, 9]: unchanged | PCWP change compared to baseline [2, 9]: unchanged | PVR change compared to baseline [2, 9]: unchanged | SV change compared to baseline [2, 9]: unchanged | blood-O2-consumption change compared to baseline [2, 9]: unchanged; also recorded: tended to decrease | ˜4-7 min CO measurement compared to ADP infusion alone [2, 9]: neither any differences | ˜4-7 min HR measurement compared to ADP infusion alone [2, 9]: neither any differences | ˜4-7 min MAP measurement compared to ADP infusion alone [2, 9]: not different | ˜4-7 min SVR measurement compared to ADP infusion alone [2, 9]: did not differ | MAP decrease to ADP ([2]; with cangrelor): attenuated | PCWP increase with ADP infusion alone ([2]; with cangrelor): attenuated | trend for a SV decrease with ADP infusion alone ([2]; with cangrelor): attenuated | cyclic flow variation (dog thrombosis model): decreased | myocardial flow (dog thrombosis model): improved | reocclusion (dog thrombosis model): decreased | any of the haemodynamic variables [3]: did not alter | time to steady state concentrations in plasma from start of infusion ([4]; bolus 30 μg/kg and infusion 4 μg/kg/min): ≤ 30 min | half-life (clearance from plasma) ([4]; plasma): 3 to 6 min | CO change by cangrelor infusion ([5]; during hypoxia, p=ns): unaltered | HR change by cangrelor infusion ([5]; during hypoxia, p=ns): unaltered | MAP change by cangrelor infusion ([5]; during hypoxia, p=ns): unaltered | MRAP change by cangrelor infusion ([5]; during hypoxia, p=ns): unaltered | PCWP change by cangrelor infusion ([5]; during hypoxia, p=ns): unaltered | PVR change by cangrelor infusion ([5]; during hypoxia, p=ns): unaltered | SV change by cangrelor infusion ([5]; during hypoxia, p=ns): unaltered | SVR change by cangrelor infusion ([5]; during hypoxia, p=ns): unaltered | blood-O2-consumption change by cangrelor infusion ([5]; during hypoxia, p=ns): unaltered | MAP change by cangrelor infusion [5, 10]: without affecting | SVR change by cangrelor infusion [5, 10]: without affecting | blood-O2-consumption change by cangrelor infusion [5, 10]: without affecting | MPAP decrease compared to hypoxia baseline ([5]; 10 min after initiation of cangrelor infusion (30 μg/kg/min for 10 min, then 4 μg/kg/min)): 3.3±0.4 mmHg | MPAP decrease compared to hypoxia baseline ([5]; 30 min after initiation of cangrelor infusion): 3.6±0.6 mmHg | MPAP compared to hypoxia baseline ([5]; hypoxia, 60 and 90 min after initiation of cangrelor infusion, p=ns): not different | MPAP decrease (attenuation of acute HPV) ([5]; hypoxia, 10 min after cangrelor infusion was initiated): ~12% | MPAP decrease (attenuation of acute HPV) ([5]; hypoxia, 30 min after cangrelor infusion was initiated): ~14%

CCCSc1nc(N[C@@H]2C[C@H]2c2ccc(F)c(F)c2)c2nnn([C@@H]3C[C@H](OCCO)[C@@H](O)[C@H]3O)c2n1 [ticagrelor]
cyclic flow variation (dog thrombosis model): decreased | myocardial flow (dog thrombosis model): improved | reocclusion (dog thrombosis model): decreased

Source: patent US11141422B2, “Methods for treating pulmonary hypertension” (Chiesi Farmaceutici S.p.A., priority 2011, dated 2021)
